Assay results from ChEMBL document CHEMBL1201862, “PubChem BioAssay data set” (2004).
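Cells were grown in 96-well plates and exposed to each compound for 48 hours at five concentrations; endpoints were interpolated linearly between bracketing concentrations, or set to the highest concentration if not reached. At the GI50, growth is halved.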 Active and inactive are the calls of the source. No stated cut-off is given here; in the data, active = GI50 up to about 1.1 µM and inactive = higher.

Experiments:
Assay in all cases: NCI-60 cell line screen, 48 h
MOLT-4 = tested on: MOLT-4
HCC 2998 = tested on: HCC 2998
HCT-116 = tested on: HCT-116
NCI-H522 = tested on: NCI-H522
SN12C = tested on: SN12C
M14 = tested on: M14
SW-620 = tested on: SW-620
KM12 = tested on: KM12
K562 = tested on: K562
SF-268 = tested on: SF-268
A549 = tested on: A549
CCRF-CEM = tested on: CCRF-CEM
HOP-92 = tested on: HOP-92
786-0 = tested on: 786-0
HT-29 = tested on: HT-29
SR = tested on: SR
COLO 205 = tested on: COLO 205
OVCAR-5 = tested on: OVCAR-5
OVCAR-8 = tested on: OVCAR-8
SK-MEL-28 = tested on: SK-MEL-28
KM-20L2 = tested on: KM-20L2
TK-10 = tested on: TK-10
UACC-257 = tested on: UACC-257
SK-OV-3 = tested on: SK-OV-3
RXF 393 = tested on: RXF 393
SNB-78 = tested on: SNB-78
DMS-114 = tested on: DMS-114
SF-539 = tested on: SF-539
NCI-H226 = tested on: NCI-H226
HL-60 = tested on: HL-60
DLD-1 = tested on: DLD-1
UACC-62 = tested on: UACC-62
EKVX = tested on: EKVX
SK-MEL-2 = tested on: SK-MEL-2
LOX IMVI = tested on: LOX IMVI
CAKI-1 = tested on: CAKI-1
SNB-75 = tested on: SNB-75
UO-31 = tested on: UO-31
HOP-62 = tested on: HOP-62
A498 = tested on: A498
DMS-273 = tested on: DMS-273
IGROV-1 = tested on: IGROV-1
RXF 631 = tested on: RXF 631
OVCAR-3 = tested on: OVCAR-3
U-251 = tested on: U-251
XF498 = tested on: XF498
Malme-3M = tested on: Malme-3M
NCI-H460 = tested on: NCI-H460
SF-295 = tested on: SF-295
NCI-H23 = tested on: NCI-H23
OVCAR-4 = tested on: OVCAR-4
HCT-15 = tested on: HCT-15
ACHN = tested on: ACHN
HOP-18 = tested on: HOP-18
SK-MEL-5 = tested on: SK-MEL-5
SNB-19 = tested on: SNB-19
LXFL 529 = tested on: LXFL 529
M19-MEL = tested on: M19-MEL

Measured: GI50

C#C[C@H]1CCCCCC1O (stereo partly drawn)
> 100 µM: HCT-15
inactive: MOLT-4 > 100 µM | HCC 2998 > 100 µM | HCT-116 > 100 µM | NCI-H522 > 100 µM | SN12C > 100 µM | M14 > 100 µM | SW-620 23.3 µM | KM12 > 100 µM | K562 > 100 µM | SF-268 > 100 µM | A549 > 100 µM | CCRF-CEM 59 µM | HOP-92 > 100 µM | 786-0 > 100 µM | HT-29 > 100 µM | SR 97.7 µM | COLO 205 > 100 µM | OVCAR-5 > 100 µM | OVCAR-8 > 100 µM | SK-MEL-28 > 100 µM | KM-20L2 > 100 µM | TK-10 > 100 µM | UACC-257 > 100 µM | SK-OV-3 > 100 µM | RXF 393 > 100 µM | SNB-78 > 100 µM | DMS-114 > 100 µM | SF-539 > 100 µM | NCI-H226 > 100 µM | HL-60 36.1 µM | DLD-1 > 100 µM | UACC-62 > 100 µM | EKVX > 100 µM | SK-MEL-2 > 100 µM | LOX IMVI 29 µM | CAKI-1 > 100 µM | SNB-75 > 100 µM | UO-31 > 100 µM | HOP-62 > 100 µM | A498 > 100 µM | DMS-273 > 100 µM | IGROV-1 > 100 µM | RXF 631 > 100 µM | OVCAR-3 > 100 µM | U-251 > 100 µM | XF498 > 100 µM | Malme-3M 65.6 µM | NCI-H460 > 100 µM | SF-295 > 100 µM | NCI-H23 > 100 µM | OVCAR-4 > 100 µM | ACHN > 100 µM | HOP-18 54.6 µM | SK-MEL-5 > 100 µM | SNB-19 > 100 µM | LXFL 529 96.8 µM | M19-MEL > 100 µM
